Measurements: PubChem BioAssay (NCI)
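Where inhibition never reached the appropriate level, the endpoint shown equals the highest concentration tested. Otherwise, values were interpolated linearly from a five-concentration, 48-hour dose response in 96-well plates. TGI: total growth inhibition.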 Where a SMILES comes first, the peptide text is derived from it. Bridges are numbered along the chain shown (N, C = ends). [ ]: non-standard residue; d: D form. The star is where a group is joined. Phe(4-NO2) = N[CH](Cc1ccc([N+](=O)[O-])cc1)C(=O)O; Cbz = O=C(OCc1ccccc1)*; PhAc = O=C(Cc1ccccc1)*

Experiments:
Experiment in all cases: inhibition of tumour cell growth, NCI panel, 48 h
NCI-H460 lung = tested on: NCI-H460 lung
SF-539 CNS = tested on: SF-539 CNS
MOLT-4 leukemia = tested on: MOLT-4 leukemia
SK-OV-3 ovarian = tested on: SK-OV-3 ovarian
MCF7 breast = tested on: MCF7 breast
MDA-N = tested on: MDA-N
SR leukemia = tested on: SR leukemia
T-47D breast = tested on: T-47D breast
HCT-15 colon = tested on: HCT-15 colon
K-562 leukemia = tested on: K-562 leukemia
UACC-257 melanoma = tested on: UACC-257 melanoma
KM12 colon = tested on: KM12 colon
U251 CNS = tested on: U251 CNS
OVCAR-5 ovarian = tested on: OVCAR-5 ovarian
SF-295 CNS = tested on: SF-295 CNS
RXF 393 renal = tested on: RXF 393 renal
HCC-2998 colon = tested on: HCC-2998 colon
HL-60(TB) leukemia = tested on: HL-60(TB) leukemia

Row | Structure (SMILES) | TGI (NCI-H460 lung) [µM] | TGI (SF-539 CNS) [µM] | TGI (MOLT-4 leukemia) [µM] | TGI (SK-OV-3 ovarian) [µM] | TGI (MCF7 breast) [µM] | TGI (MDA-N) [µM] | TGI (SR leukemia) [µM] | TGI (T-47D breast) [µM] | TGI (HCT-15 colon) [µM] | TGI (K-562 leukemia) [µM] | TGI (UACC-257 melanoma) [µM] | TGI (KM12 colon) [µM] | TGI (U251 CNS) [µM] | TGI (OVCAR-5 ovarian) [µM] | TGI (SF-295 CNS) [µM] | TGI (RXF 393 renal) [µM] | TGI (HCC-2998 colon) [µM] | TGI (HL-60(TB) leukemia) [µM]
1 | COc1ccc(/C=N/n2c(=O)[nH]c3ccccc3c2=O)cc1 | > 100 | > 100 | > 100 | > 100 | > 100 | > 100 | > 100 | > 100 | > 100 | > 100 | > 100 | > 100 | > 100 | > 100 | > 100 |  |  | 
2 | Cc1cc(N)ccc1N=Nc1ccc(S(=O)(=O)CCOS(=O)(=O)O)cc1 | 12.2 | 6.9 | > 32.5 |  | 11.8 | 0.755 | > 100 | > 59.1 | 11.3 |  | 24.3 | 13.2 | 13.1 | 26.4 | 9.21 | 23.7 | 6.74 | > 38.1
3 | CCOC(=O)N1CC2(C)C=CC1C(C(=O)OC)C2 (stereo unspecified) | > 100 |  | > 100 | > 100 | > 100 | > 100 | > 100 | > 100 | > 100 | > 100 | > 100 | > 100 | > 100 | > 100 | > 100 | > 100 | > 100 | > 100
4 | Cc1ccc2c3c(cnc2n1)C(=O)OCCN3C | > 100 | > 100 | > 100 |  | > 100 | > 100 | > 100 | > 100 | > 100 | > 100 | > 100 | > 100 | > 100 | > 100 | > 100 | > 100 | > 100 | > 100
5 | O=C1C=CC(=O)c2c1cc([N+](=O)[O-])c1ccoc21 | 35.2 | 69.9 |  | 43.6 | 44.3 | 35.4 | > 100 | > 100 | 58.5 | > 100 | 32.4 | 31.9 | 37.2 | 35.4 | 35.8 | 3.75 | 41.6 | 8.72
6 | Cc1ccc(/C=N/Nc2nc3ccccc3s2)s1 |  | > 100 | > 100 | > 100 | > 100 | > 100 |  | > 100 | > 100 | > 100 | > 100 | > 100 | > 100 | > 100 | > 100 | > 100 | > 100 | > 100
7 | O=C(Cc1ccccc1)N[C@@H]1COC(=O)[C@@H]2CCCN2C(=O)[C@@H]2CCCN2C1=O (PhAc-[dS]-Pro-Pro; ester 1-C) | > 100 | > 100 | > 100 | > 100 | > 100 | > 100 | > 100 | > 100 | > 100 |  | > 100 | > 100 |  | > 100 | > 100 | > 100 | > 100 | > 100
8 | CCCCCN1CCN(c2ncccn2)CC1 |  | > 100 |  |  | > 100 | > 100 | > 100 | > 100 | > 100 | > 100 | > 100 | > 100 | > 100 | > 100 | > 100 | > 100 | > 100 | > 100
9 | O=c1[nH]c(=O)n(C2OC(CO)C(O)C2O)c2ncc(-c3ccc(-c4ccccc4)cc3)nc12 (stereo unspecified) | > 20 | > 20 | > 20 | > 20 | > 20 | > 20 | > 20 | > 20 | > 20 | > 20 | > 20 | > 20 | > 20 | > 20 | > 20 | > 20 | > 20 | 
10 | Cn1c2c(c3ccccc31)CCN1OCC=C[C@@H](C(=O)O)[C@@H]21 | > 100 | > 100 |  | > 100 | > 100 | > 100 | > 100 | > 100 | > 100 |  | > 100 | > 100 | > 100 | > 100 |  | > 100 | > 100 | > 100
11 | O=C(Nc1cc2c(=O)[nH]c3ccccc3c2oc1=O)c1cnccn1 | > 100 | > 100 | > 100 | > 100 | > 100 | > 100 | > 100 | > 100 | > 100 | > 100 | > 100 | > 100 | > 100 | > 100 | > 100 | > 100 | > 100 | 
12 | O=C(Nc1ccc(Cl)cc1)NS(=O)(=O)c1coc2ccccc2c1=O | > 10 | > 10 | > 10 | > 10 | > 10 | > 10 | > 10 | > 10 | > 10 |  | > 10 | > 10 | > 10 | > 10 | > 10 | > 10 | > 10 | > 10
13 | CN(C)C(=S)N1C(=S)N(c2ccccc2)C(=Nc2ccccc2)C1=Nc1ccccc1 | > 100 | > 100 | > 100 | > 100 |  | > 100 | > 100 | > 100 | > 100 | > 100 | > 100 | > 100 | > 100 | > 100 | > 100 | > 100 | > 100 | > 100
14 | CC1=CC=C2c3ccccc3C=CN2C(=O)C1 | > 100 | > 100 | > 100 | > 100 | > 100 | > 100 | > 100 | > 100 | > 100 | > 100 | > 100 | > 100 | > 100 | > 100 | > 100 |  | > 100 | 41.2
15 | O=C1c2sc(-c3ccc(F)cc3)cc2-n2cccc21 | > 100 |  | > 100 | 63 | > 100 | > 100 | > 100 | > 100 | > 100 | 74.2 | > 100 | > 100 | 40.2 | > 100 | 93.9 | 73.1 | > 100 | 
16 | CCOC(=O)CCC(NC(=O)OCc1ccccc1)C(=O)NC(CCC(=O)OCC)C(=O)NC(Cc1ccc([N+](=O)[O-])cc1)C(=O)NC(CCC(=O)OCC)C(=O)NC(CCC(=O)OCC)C(=O)OCC (stereo unspecified) (Cbz-E(OEt)E(OEt)[Phe(4-NO2)]E(OEt)E(OEt)-OEt; configuration not given here) | > 100 |  | > 100 | > 100 | > 100 | > 100 | > 100 | > 100 | > 100 |  | > 100 | > 100 | > 100 | > 100 | > 100 | > 100 |  | 
17 | Cc1ccc2nc(N/N=C/c3ccc(C)s3)cc(C)c2c1 |  | 24.4 | 53.4 | 32.7 | 20 | 20.4 | > 100 | 41.9 | 15.3 | > 100 | 19.9 | 16.1 | 27.6 | 22 | 21.1 | 28.3 | 17.3 | 
18 | CC(=O)OCC1OC(n2c(C#N)cc(=O)[nH]c2=O)CC1OC(C)=O (stereo unspecified) | > 100 | > 100 | > 100 | > 100 | > 100 | > 100 | > 100 | > 100 | > 100 | > 100 | > 100 | > 100 | > 100 | > 100 | > 100 | > 100 |  | > 100
19 | CC(C)(C)N1C(=O)c2ccccc2C1(O)C(F)(F)F (stereo unspecified) | > 100 | > 100 |  | > 100 | > 100 | > 100 | > 100 | > 100 | > 100 | > 100 | > 100 | > 100 | > 100 | > 100 | > 100 | > 100 | > 100 | > 100
20 | CC1(C)C=Cc2c(cc3oc4ccc5c(c4c(=O)c3c2O)C=CC(C)(C)O5)O1 |  | > 100 | > 100 | > 100 | > 100 | > 100 | > 100 | > 100 | > 100 |  | > 100 | > 100 | > 100 | > 100 | > 100 | > 100 | > 100 | 
21 | N#CC1(C#N)NC(c2cccnc2)C(C#N)(C#N)NC1c1cccnc1 (stereo unspecified) |  | > 100 | > 100 | > 100 | > 100 | > 100 |  | > 100 | > 100 | > 100 | > 100 | > 100 | > 100 | > 100 | > 100 | > 100 | > 100 | > 100
22 | CC(C)/C(Cl)=N/OC(=O)Nc1cccc(C(F)(F)F)c1 | 34.3 |  | 4.42 | 31.7 | 16.5 | 23.7 | 3.12 | 14.1 | 3.39 |  | 29.5 | 29.8 | 31.3 | 34 | 33 | 18.9 | 30 | 2.22
23 | CC1C(=NO)C(C)C(c2ccccc2)N(N=O)C1c1ccccc1 (stereo unspecified) | 32.1 | 26.5 | 44.6 | 22.7 | > 100 | 36.3 | 45.7 | 38.9 | 31.9 | > 100 | 54.8 | 29.8 | 35.4 |  | 29.5 | 32.7 | 33.8 | 88.6
24 | CCc1n[nH]c(=O)n1N1C(=O)CCC1=O | > 100 |  | > 100 | > 100 | > 100 | > 100 | > 100 | > 100 | > 100 | > 100 | > 100 | > 100 | > 100 | > 100 | > 100 | > 100 | > 100 | 
25 | NC(=O)NC(=O)CCC(NS(=O)(=O)c1ccccc1)C(=O)NC(N)=O (stereo unspecified) | > 100 | > 100 | > 100 | > 100 | > 100 | > 100 | > 100 | > 100 | > 100 | > 100 | > 100 | > 100 | > 100 | > 100 | > 100 |  | > 100 | > 100
26 | C=CCOc1ccc(/C(N=Nc2ccc(C)cc2)=N/NC(=O)c2ccccc2)cc1OC | 48 |  | > 100 |  | 83.6 | 57.6 | 25 | 45.3 | > 100 |  | 49.1 | 48.7 | > 100 | > 100 | > 100 |  | 76.5 | 29
27 | c1ccc(N=C(N2CCOCC2)N(CCN2CCOCC2)c2ccccc2)cc1 | > 100 | > 100 | > 100 | > 100 | > 100 | > 100 | > 100 | > 100 | > 100 | > 100 | > 100 | > 100 | > 100 |  | > 100 | > 100 | > 100 | 
28 | Cc1ccccc1N=CN(C)C |  | > 100 | > 100 | > 100 | > 100 | > 100 | > 100 | > 100 | > 100 | 44.4 | 71.1 |  | > 100 | > 100 | > 100 | > 100 |  | 39
